# Measured values as given in ChEMBL document CHEMBL2040790 (Bioorg Med Chem Lett, 2012).
# Experiments:
# Vaccinia virus = assay: Antiviral activity against Vaccinia virus; format: functional, organism-based; details: Orthopoxvirus vaccinia
# La Crosse virus = assay: Antiviral activity against La Crosse virus infected in african green monkey Vero cells assessed as inhibition of virus-induced cytopathic effect by fluorometric analysis; format: functional, organism-based
structure (smiles),measurement,setting,value
CC(C)(C)c1ccc(C(=O)NC(=S)Nc2cccc(Cl)c2)cc1,EC50,Vaccinia virus,1.58 µM
same,EC50,La Crosse virus,4.16 µM
CC(C)(C)c1ccc(C(=O)NC(=S)Nc2ccccc2N)cc1,EC50,Vaccinia virus,> 25 µM
same,EC50,La Crosse virus,> 25 µM
CC(C)(C)c1ccc(C(=O)NC(=S)Nc2cccc([N+](=O)[O-])c2)cc1,EC50,Vaccinia virus,> 25 µM
same,EC50,La Crosse virus,> 25 µM
Cc1cccc(Cl)c1NC(=S)NC(=O)c1ccc(C(C)(C)C)cc1,EC50,Vaccinia virus,2.49 µM
same,EC50,La Crosse virus,0.94 µM
COc1cc(NC(=S)NC(=O)c2ccc(C(C)(C)C)cc2)ccc1NCc1ccccc1Cl,EC50,Vaccinia virus,0.34 µM
same,EC50,La Crosse virus,0.2 µM
CC(C)(C)c1ccc(C(=O)NC(=S)Nc2ccc(C(=O)O)cc2)cc1,EC50,Vaccinia virus,> 25 µM
same,EC50,La Crosse virus,> 25 µM
CC(C)(C)c1ccc(C(=O)NC(=S)Nc2ccc(S(=O)(=O)NC3CCCCC3)cc2)cc1,EC50,Vaccinia virus,> 25 µM
same,EC50,La Crosse virus,> 25 µM
CC(C)(C)c1ccc(C(=O)NC(=S)Nc2cccc(C(F)(F)F)c2Cl)cc1,EC50,Vaccinia virus,1.83 µM
same,EC50,La Crosse virus,0.85 µM
CC(C)(C)c1ccc(C(=O)NC(=S)Nc2ccc(Nc3ccccc3)cc2)cc1,EC50,Vaccinia virus,0.82 µM
same,EC50,La Crosse virus,1.7 µM
COc1cc(NC(=S)NCc2ccc(C(C)(C)C)cc2)ccc1NC(=O)c1ccccc1Cl,EC50,Vaccinia virus,> 25 µM
same,EC50,La Crosse virus,> 25 µM
CC(C)(C)c1ccc(C(=O)NC(=S)Nc2cccc(C(=O)O)c2)cc1,EC50,Vaccinia virus,> 25 µM
same,EC50,La Crosse virus,> 25 µM
COc1cc(NC(=S)NC(=O)c2ccc(C(C)(C)C)cc2)ccc1NC(=O)c1cnccn1,EC50,Vaccinia virus,> 25 µM
same,EC50,La Crosse virus,> 25 µM
COC(=O)CC(=O)Nc1ccc(NC(=S)NC(=O)c2ccc(C(C)(C)C)cc2)cc1OC,EC50,Vaccinia virus,18.6 µM
same,EC50,La Crosse virus,> 25 µM
COc1cc(NC(=S)NC(=O)c2ccc(C(C)(C)C)cc2)ccc1NC(=O)CCCCN(C)C,EC50,Vaccinia virus,> 25 µM
same,EC50,La Crosse virus,> 25 µM
CC(C)(C)c1ccc(C(=O)NC(=S)Nc2ccc(NC(=O)c3ccccc3)cc2Cl)cc1,EC50,Vaccinia virus,0.16 µM
same,EC50,La Crosse virus,0.08 µM
CC(C)(C)c1ccc(C(=O)NC(=S)Nc2ccccn2)cc1,EC50,Vaccinia virus,> 25 µM
same,EC50,La Crosse virus,> 25 µM
COc1cc(NC(=S)NC(=O)c2ccc(C(C)(C)C)cc2)ccc1NC(=O)c1ccccn1,EC50,Vaccinia virus,> 25 µM
same,EC50,La Crosse virus,> 25 µM
CC(C)(C)c1ccc(C(=O)NC(=S)Nc2ccc(Cl)cc2Cl)cc1,EC50,Vaccinia virus,> 25 µM
same,EC50,La Crosse virus,> 25 µM
CC(C)(C)c1ccc(C(=O)NC(=S)Nc2ccc(S(=O)(=O)Nc3nccs3)cc2)cc1,EC50,Vaccinia virus,> 25 µM
same,EC50,La Crosse virus,> 25 µM
COc1ccc(NC(=S)NC(=O)c2ccc(C(C)(C)C)cc2)cc1NC(=O)c1ccccc1Cl,EC50,Vaccinia virus,> 25 µM
same,EC50,La Crosse virus,> 25 µM
CC(C)(C)c1ccc(C(=O)NC(=S)Nc2ccc(N)cc2Cl)cc1,EC50,Vaccinia virus,0.62 µM
same,EC50,La Crosse virus,0.75 µM
COc1cc(N/C(=N/C#N)NC(=O)c2ccc(C(C)(C)C)cc2)ccc1NC(=O)c1ccccc1Cl,EC50,Vaccinia virus,> 25 µM
COc1ccc(NC(=S)NC(=O)c2ccc(C(C)(C)C)cc2)cc1,EC50,Vaccinia virus,2.39 µM
same,EC50,La Crosse virus,> 25 µM
COc1cc(NC(=S)NC(=O)c2ccc(C(C)(C)C)cc2)ccc1NC(=O)CC(=O)O,EC50,Vaccinia virus,> 25 µM
same,EC50,La Crosse virus,> 25 µM
COc1cc(NC(=S)NC(=O)c2ccc(C(C)(C)C)cc2)ccc1NC(C)=O,EC50,Vaccinia virus,3.27 µM
same,EC50,La Crosse virus,1.35 µM
COc1cc(NC(=S)NC(=O)c2ccc(C(C)(C)C)cc2)ccc1NC(=O)CCC(=O)O,EC50,Vaccinia virus,> 25 µM
same,EC50,La Crosse virus,> 25 µM
COc1cc(NC(=S)NC(=O)c2ccc(C(C)(C)C)cc2)ccc1NC(N)=O,EC50,Vaccinia virus,> 25 µM
same,EC50,La Crosse virus,4.86 µM
CC(C)(C)c1ccc(C(=O)NC(=S)Nc2ccccc2[N+](=O)[O-])cc1,EC50,Vaccinia virus,3.64 µM
same,EC50,La Crosse virus,3.7 µM
Cc1cccc(NC(=S)NC(=O)c2ccc(C(C)(C)C)cc2)c1Cl,EC50,Vaccinia virus,1.83 µM
same,EC50,La Crosse virus,1.17 µM
CN(C)c1ccc(NC(=S)NC(=O)c2ccc(C(C)(C)C)cc2)cc1,EC50,Vaccinia virus,2.43 µM
COc1cc(NC(=N)NC(=O)c2ccc(C(C)(C)C)cc2)ccc1NC(=O)c1ccccc1Cl,EC50,Vaccinia virus,> 25 µM
COc1cc(NC(=S)NC(=O)c2ccc(C(C)(C)C)cc2)ccc1NC(=O)c1cccnc1,EC50,Vaccinia virus,1.72 µM
COc1cc(NC(=S)NC(=O)c2ccc(C(C)(C)C)cc2)ccc1NC(=O)c1ccncc1,EC50,Vaccinia virus,2.03 µM
